Data set [1] concerns L. infantum (MHOM/MA(BE)/67) amastigotes in primary peritoneal mouse macrophages. More on the design: method as in earlier work. To be noted: Table 1, preliminary study; cited from earlier work.
For data set [2], the system named is Trypanosoma brucei brucei trypomastigotes, suramin-sensitive strain (Squib 427). Description: T. b. brucei growth/viability assay (resazurin). Particulars: Trypanosoma brucei, 72 h, 3 days. The data set is classed as cell-based. On the procedure:
After 3 days, parasite growth was assessed fluorimetrically following the addition of resazurin. After 24 h at 37 °C, fluorescence was measured (λex = 550 nm, λem = 590 nm). The results were expressed as a percentage reduction in parasite growth/viability compared to control wells, and a 50% inhibitory concentration (IC50) was calculated.

Data set [3] relates to Trypanosoma cruzi (Tulahuen CL2 β-galactosidase) amastigotes in hMRC-5SV2 cells. Description: T. cruzi intracellular amastigote assay (β-galactosidase/CPRG). Particulars: Trypanosoma cruzi, TULAHUEN, 168 h, intracellular amastigotes, 7 days; read-out: IC50 T. cruzi intramacrophage amastigotes (converted). It counts as cell-based. Summed up:
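Infected hMRC-5SV2 fibroblasts exposed 7 days to compound at 64, 16, 4, 1 and 0.25 μM. Parasite burden read as β-galactosidase cleavage of CPRG at 540 nm after 4 h at 37 °C. Percent growth reduction versus control wells, IC50 calculated.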

Data set [4] is described as follows: in vitro. To be noted: human, CC50 hMRC-5 (cytotoxicity).
Data set [5] concerns L. infantum (MHOM/MA(BE)/67) amastigotes in primary peritoneal mouse macrophages. Briefly: L. infantum intramacrophage amastigote assay (microscopic burden). It counts as cell-based, Leishmania infantum. Particulars: Leishmania infantum, Macrophage, 120 h, 5 days, mouse macrophages as host. The procedure, abridged:
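Amastigotes in primary peritoneal mouse macrophages were exposed 5 days to 64, 16, 4, 1 and 0.25 μM compound. Amastigotes per macrophage counted microscopically; percent burden reduction versus untreated wells gave IC50.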

Data set [6] has as its system murine macrophages. Description: Qualitative toxicity toward mouse macrophages. To be noted: concentration at which toxicity was observed; 64, 16 and 4 µM tested.
In data set [7] the test system is Trypanosoma brucei brucei trypomastigotes, suramin-sensitive strain (Squib 427). More on the design: method as in earlier work. To be noted: Table 1, preliminary study; read-out: IC50 T. b. brucei; cited from earlier work.
The test system of data set [8] is Trypanosoma cruzi (Tulahuen CL2 β-galactosidase) amastigotes in hMRC-5SV2 cells. More on the design: method as in earlier work. Particulars: Table 1, preliminary study; read-out: IC50 T. cruzi; cited from earlier work.

Like-named read-outs stand apart in the source and are kept apart here.

With `O=C(/C=C/c1ccc(C(F)(F)F)cc1)/C=C/c1ccc(C(F)(F)F)cc1` [1r], the IC50 was above 64000 nM in [1], 200 nM in data set [2], 1600 nM in [3] and above 64000 nM in data set [5]. The CC50 at 3 days in data set [4] came to 26200 nM.
On to `O=C(/C=C/c1ccc(OC(F)(F)F)cc1)/C=C/c1ccc(OC(F)(F)F)cc1` [1s], for which the IC50 in data set [1] was above 64000 nM; in data set [2], 500 nM; in [3] it was 1800 nM; in data set [5], above 64000 nM. In addition, the CC50 at 3 days in [4] was 32800 nM.
The compound `C=CCOc1ccc(OC)cc1/C=C/C(=O)/C=C/c1cc(OC)ccc1OCC=C` [1n] came in with a melting point of 83 °C. In data set [2], the IC50 amounted to 26600 nM. The IC50 in [3] was 24200 nM. This compound also registered a CC50 at 3 days in [4] above 16000 nM. This compound had an IC50 in data set [5] above 64000 nM.
As for `Cl.Cl.O=C(/C=C/c1ccncc1)/C=C/c1ccncc1` [1y], the IC50 in [2] was at most 300 nM; in [3] it was at most 300 nM; in data set [7], at most 300 nM; in data set [5] it was 1000 nM; in data set [8] it was at most 300 nM. The “Toxicity (T) observed toward murine macrophages” value in data set [6] is “T3 (T3 = 4)”. Besides, the cytotoxic concentration (CC50) at 3 days in data set [4] came out at 1100 nM.
